Experiments:
[1] = oral ingestion; cited from earlier work
acneiform eruptions = test: Case reports: effect on acneiform eruptions in patients; format: in vivo, human
From the text: The effect of the micronutrient/mineral supplement of the present invention on acneiform eruptions is illustrated below.
1. patient six was a person with a long history of cystic acne vulgaris. They had no history of polycystic ovarian syndrome, ovarian cysts, oligomenorrhea or amenorrhea. Topical benzoyl peroxide and antibiotics provided no relief of their acne. They refused both oral contraceptive use or a trial of the diuretic spironolactone for possible acne benefits. They were contemplating a trial of accutane, when they decided to see an endocrinologist for a possible hormone etiology of their skin condition. Complete blood count, chemistries, thyroid function tests, AM cortisol were normal. Vitamin B12 and folate concentrations were normal; the total testosterone was 40 ng and not elevated; the androgenic steroids—DHEAS and androstenedione were normal. The 25 hydroxyvitamin D concentration was <5 ng/ml and intact parathyroid hormone (PTH) was elevated at 69 pg/ml (normal up to 65 pg). […] At four months, the 25 vitamin D concentration was 31 ng/ml and the total vitamin D3 was reduced to 2000 IU daily.
2. patient two was a person with chronic fatigue, inability to lose weight and severe chronic acne vulgaris unresponsive to topical treatments. They had been on Accutane multilple times but their skin improvement was transient with continual periodic acne eruptions. […] They were prescribed vitamin D3 at 4000 IU daily with calcium carbonate (elemental calcium) at 1500 mg; folate 2000 IU; vitamin B6 at 50 mcg and vitamin B12 at 500 mcg daily (B12 was prescribed at 500 mcg for 2 weeks only because of B12 deficiency) and then lowered to 50 mcg daily). A repeat 25 vitamin D level at 3 months was 30 ng and the total daily vitamin D was then lowered to 2000 IU daily; repeat B12 level was normal.
3. patient one was a person with a known history of oligomenorrhea/amenorrhea. Their menstrual cycles had been irregular with fewer than 8 cycles per year. Oral contraceptives prescribed 5 years ago normalized their menstrual cycles. […]

Q: For `C=C1CC[C@H](O)C/C1=C/C=C1\CCC[C@]2(C)[C@@H]([C@H](C)CCCC(C)C)CC[C@@H]12` [cholecalciferol], which “daily dose at which toxicity occurs” value [1] is on record?
A: The value was 40,000 IU.

Q: With `CC1=C(/C=C/C(C)=C/C=C/C(C)=C\C(=O)O)C(C)(C)CCC1` [Accutane] as the compound, how does the effect on acne (acneiform eruptions; patient one, earlier and current treatment) read?
A: The effect on acne was “without success”.

Q: What about the skin improvement (acneiform eruptions; patient two, earlier treatment, multiple courses) of the same compound?
A: The skin improvement was “transient”.

Q: With `O=C(OOC(=O)c1ccccc1)c1ccccc1` [benzoyl peroxide] as the compound, how does the relief of acne (acneiform eruptions; patient six, earlier topical treatment) read?
A: Its relief of acne is “no relief”.
